From patent US11318133B2, “Modulators of integrated stress response pathway” (Praxis Biotech LLC, priority 2019, dated 2022)

Tests used:
ATF4 = ATF4 expression inhibition assay (ATF4 luciferase reporter, thapsigargin-stressed); assay type: cell-based; conditions: Homo sapiens, HEK-293T; HEK293T cells carrying ATF4 luciferase reporter, 100 nM thapsigargin, 3 hours
Description: The ATF4 reporter was prepared by fusing the human full length 5′UTR of ATF4 (NCBI Accession No. BC022088.2) upstream of the firefly luciferase coding sequence lacking the initiator methionine. The fused sequence was cloned into pLenti-EF1a-C-Myc-DDK-IRES-Puro cloning vector (Origen #PS100085) using standard methods. Virus production was carried out by using Lenti-X™ Packaging Single Shots Protocol (Clonetech #631276). Viral particles were used to transduce HEK293T cells (ATCC #CRL-3216, ATCC Manassas, Va.), which were subsequently selected with puromycin to generate stable cell line. Cells were maintained at 37° C. and 5% CO2 in DMEM-F12 (Hyclone #SH30023.02) supplemented with 10% heat-inactivated fetal bovine serum (Gibco #16000-044), 2 mM L-glutamine (Gibco #25030-081), 100 U/ml penicillin, and 100 μg/ml streptomycin (Gibco #15140-122).
HEK293T cells carrying the ATF4 luciferase reporter were plated on 96-well plates (Nunc) at 10,000 cells per well. Cells were treated two days after seeding with 100 nM thapsigargin (Tg) (Sigma-Aldrich #T9033) in the presence of different concentrations of selected compounds ranging from 1 nM to […]. Cells without treatment or cells treated with Tg alone were used as controls. Assay plates containing cells were incubated for 3 hours at 37° C.
Luciferase reactions were performed using Luciferase Assay System (Promega #E1501) as specified by the manufacturer. Luminescence was read with an integration time of 1 s and a gain of 110 using a Cytation-5 multi-mode microplate reader (BioTek). Relative luminescence units were normalized to Tg treatment (0% inhibition) and untreated cells (100% inhibition) and the percentage of ATF4 inhibition was calculated.
Accordingly, inhibition of ATF4 expression as a result of the test compound indicates suppression of the ISR pathway.

[1] = test system: Chinese hamster ovary (CHO) cells; experiment: Protein synthesis assay (puromycin incorporation, western blot); assay type: cell-based; conditions: without Tg, 2 hours, media alone = 100%
Description: Chinese hamster ovary (CHO) cells were maintained at 37° C. and 5% CO2 in Dulbecco's Modified Eagle's Media (DMEM) supplemented with 10% fetal bovine serum, 2 mM L-glutamine, 100 U/ml penicillin, and 100 μg/ml streptomycin. After reaching 80% of confluence, cells were detached and seeded on 6 well plates in complete media, allowed to recover overnight and treated for 2 hours with 1 μM of the test compound (to assess protein synthesis levels in unstressed condition), or for 2 hours with 300 nM Tg in the presence of 1 μM of the test compound (to assess the recovery of protein synthesis in a stressed condition). Cells with Tg alone were used as controls.
After the 2 hours treatments, media were replaced by adding 10 μg/ml puromycin (Sigma Aldrich #P8833) in complete media for 30 min. Media were removed and cells were lysed with SDS-PAGE lysis buffer. Lysates were transferred to 1.5 ml tubes and sonicated for 3 min and total protein amount were quantified using BCA Protein Assay Kit (Pierce). Equal amount of protein (30 μg) was loaded on SDS-PAGE gels. Proteins were transferred onto […] PVDF membranes (BioRad) and probed with primary antibodies diluted in Tris-buffered saline supplemented with 0.1% Tween 20 (Merck #S6996184 505) and 3% bovine serum albumin (Rockland #BSA-50).
(§1) Puromycin (12D10) (Merck #MABE343) and 3-actin (Sigma Aldrich #A5441) antibodies were used as primary antibody. A HRP-conjugated secondary antibody (Rockland) was employed to detect immune-reactive bands using enhanced chemiluminescence (ECL Western Blotting Substrate, Pierce). Quantification of protein bands was done by densitometry using ImageJ software.
Percent increase of protein synthesis in unstressed cells (without Tg treatment) in the presence of media alone or certain test compounds is shown in Table 3. The percentage levels were normalized to the media alone condition, which correspond to 100% protein synthesis.
Percent recovery of protein synthesis in stressed cells (with Tg treatment) due to the test compounds at 1 μM is also shown in Table 3. The levels were normalized to the media alone and Tg alone conditions, which correspond to 100% and 0% respectively.

Balb/c mice = experiment: Fasting-induced muscle atrophy, in vivo protein synthesis; conditions: 10 mg/kg oral, 2 days fasting, versus vehicle-treated fasted mice; FIG. 1
Description: Wild type eight-weeks-old male Balb/c mice obtained from the vivarium Fundaciön Ciencia & Vida Chile (Santiago, Chile) are used. Mice were housed in independent plastic cages in a room maintained at 25° C. with a 12-h:12-h light:dark cycle. […]
Upon collection, muscles were immediately frozen in liquid nitrogen and then stored at −80° C. […] Protein concentration in supernatants was determined using BCA Protein Assay Kit (Pierce). […]
as §1, with “Millipore,” for “#MABE343)”, “β-actin (Sigma-Aldrich)” for “3-actin (Sigma Aldrich #A5441)”, “antibodies.” for “antibody.”
Percent of protein synthesis in tibialis anterior of each mouse from fed or fasted animals treated with vehicle or compound 3 is shown in FIG. 1. The levels were normalized to β-actin expression and percentage was calculated as the percent relative to protein synthesis levels from control mice (Fed) which correspond to 100%.

| Compound | IC50 (ATF4) | % Protein synthesis in unstressed cells (1 μM test compound) [1] | Protein synthesis in tibialis anterior of fasted mice (Balb/c mice) |
| --- | --- | --- | --- |
| O=C(NC1CCN(CC(O)COc2ccc(Cl)c(F)c2)CC1)c1cn(C2CC2)c2cc(Cl)c(F)cc2c1=O (centres unmarked) [Compound 1, 7-chloro-N-(1-(3-(4-chloro-3-fluorophenoxy)-2-hydroxypropyl)piperidin-4-yl)-1-cyclopropyl-6-fluoro-4-oxo-1,4-dihydroquinoline-3-carboxamide] | > 10 µM | 336.9% |  |
| O=C(NC1CCN(C[C@H](O)COc2ccc(Cl)c(F)c2)CC1)c1cn(C2CC2)c2cc(Cl)c(F)cc2c1=O [Compound 3, (S)-7-chloro-N-(1-(3-(4-chloro-3-fluorophenoxy)-2-hydroxypropyl)piperidin-4-yl)-1-cyclopropyl-6-fluoro-4-oxo-1,4-dihydroquinoline-3-carboxamide] | > 10 µM | 397.3% | improvement in protein synthesis in muscles |
| O=C(NN1CCN(C[C@@H](O)COc2ccc(Cl)c(F)c2)CC1)c1cn(C2CC2)c2cc(Cl)c(F)cc2c1=O [Compound 5, (R)-7-chloro-N-(4-(3-(4-chloro-3-fluorophenoxy)-2-hydroxypropyl)piperazin-1-yl)-1-cyclopropyl-6-fluoro-4-oxo-1,4-dihydroquinoline-3-carboxamide] | > 10 µM | 173.2% |  |
| O=C(NC1CCN(C[C@@H](O)COc2ccc(Cl)c(F)c2)CC1)c1cn(C2CC2)c2cc(Cl)c(F)cc2c1=O [Compound 2, (R)-7-chloro-N-(1-(3-(4-chloro-3-fluorophenoxy)-2-hydroxypropyl)piperidin-4-yl)-1-cyclopropyl-6-fluoro-4-oxo-1,4-dihydroquinoline-3-carboxamide] | > 10 µM | 336.3% |  |
| O=C(NN1CCN(C[C@H](O)COc2ccc(Cl)c(F)c2)CC1)c1cn(C2CC2)c2cc(Cl)c(F)cc2c1=O [Compound 6, (S)-7-chloro-N-(4-(3-(4-chloro-3-fluorophenoxy)-2-hydroxypropyl)piperazin-1-yl)-1-cyclopropyl-6-fluoro-4-oxo-1,4-dihydroquinoline-3-carboxamide] | > 10 µM | 244.5% |  |
